# Reference: publication PMC7870638, “Toxicity of anticancer drugs in human placental tissue explants and trophoblast cell lines” (Archives of Toxicology, 2020)
# How the values were obtained:
# [1] = MTT assay in placental explants (tissue viability); format: cell-based, human; settings: female, human, term placental villous tissue explants, 72 h exposure
# Procedure: (§1) Term placentas, obtained from consenting women following uncomplicated pregnancies and delivered vaginally or by caesarean section, were used for all experiments. Approval of the Regional Committee on Research involving Human Subjects was obtained (File 2014-1397). Within 60 min after delivery, 1 cm^3 villous tissue samples were excised at random areas midway between the umbilical cord and distal edge of the placenta. To remove maternal blood, samples were carefully rinsed in sterile Dulbecco’s phosphate-buffered saline supplemented with calcium chloride and magnesium chloride (Sigma-Aldrich, St. Louis, MO, USA) which was kept at 37 °C. The villous tissue was cut into small pieces weighing approximately 5 mg, after which 4–6 pieces of tissue were cultured together in individual wells of a 6-well plate. The explants were cultured in 1.5 ml of RPMI-1640 culture medium (Gibco, USA) with 15% heat-inactivated fetal bovine serum, 1% penicillin streptomycin, 1% gentamicin, and 1% amphotericin B (Life Technologies, USA). Placental explant cultures were kept for 7 days at 37 °C in a humidified gas mixture of 5% CO2 and 95% air. The culture medium was renewed every 24 h.
# Treatment with TKIs or cytostatic drugs was started at day four of culture to allow for the syncytiotrophoblasts to regenerate (Siman et al. [2001]). Explants were then incubated for 72 h with 1, 10 or 100 µM of all TKIs or cytostatic drugs mentioned above. […] Culture medium was replaced every 24 h with new medium containing the original concentration of the drug. Supernatant was collected each day and stored at − 20 °C for hormone quantification.
# To evaluate tissue and cell viability, after 72 h of drug exposure, tissue explants were incubated for 4 h at 37 °C with 1 mM 3-(4,5-dimethylthiazol-2-yl)-[…] (MTT) in RPMI. After incubation, the medium was removed, the tissue in each well was weighed, and the explants were subsequently placed in 500 µL DMSO for 10 min to dissolve the formazan formed. After 10 min, the DMSO was transferred to a 96-well plate and absorbance was measured at 540 nm using a Biorad Multiwell Plate reader.
# Construction of graphs and data analysis were performed using Graphpad Prism version 8.4.2. MTT conversion and progesterone and estrone release in placental explants were normalized to tissue wet weight. To compare the effects on tissue viability and cell viability, the data were normalized to control conditions and mean differences were tested using an unpaired t test, a one-way ANOVA, or a two-way repeated measures ANOVA. The change in progesterone release rate as compared to the baseline (at 0 h) was calculated for each well separately, after which data were normalized to control conditions. One-way ANOVA was used to assess effects at the 72 h time point only. The Bonferroni post hoc test was applied to compare treatment conditions with controls. Data are described as mean ± SD in Figs. 2 and 3 and as mean ± SEM in all other figures where comparisons of means between groups were made. The mean and SD or SEM were calculated from all individual results (three experiments performed in duplicate or triplicate wells, n = 6 or n = 9).
# [2] = test system: progesterone and estrone release in placental explants; assay: Steroid (progesterone, estrone) release in placental explants, LC-MS/MS of culture medium; format: cell-based, human; settings: placental explants, 1, 10 and 100 µM, after 24 h
# Procedure: as §1
# Treatment with TKIs or cytostatic drugs was started at day four of culture to allow for the syncytiotrophoblasts to regenerate (Siman et al. [2001]). Explants were then incubated for 72 h with 1, 10 or 100 µM of all TKIs or cytostatic drugs mentioned above. […] For cisplatin and carboplatin, culture medium was used as a solvent. Culture medium was replaced every 24 h with new medium containing the original concentration of the drug. Supernatant was collected each day and stored at − 20 °C for hormone quantification.
# Progesterone and estrone concentrations in culture medium were determined by LC–MS/MS analysis using an Acquity UPLC (Waters, Milford, MA, USA) equipped with a C18 UPLC column (Acquity UPLC BEH C18, 2.1 × 50 mm, Milford, MA, USA, Waters) coupled to a Xevo TQ-S (Waters) triple quadrupole mass spectrometer. Progesterone-D9 was used as internal standard and calibration curves were made in the matrix. To precipitate proteins, methanol containing the internal standard was added to culture medium samples in a ratio 3:1 (MeOH:medium). Following subsequent centrifugation (13,000g for 3 min), 1 μl of the clear supernatant was injected into the LC–MS to quantify progesterone and estrone. Solvent A consisted of 0.2 mM NH4F in water and solvent B consisted of 0.2 mM NH4F in Acetonitrile:Methanol in a ratio of 75:25%. Separation was performed at a flow rate of 350 µl/min under the following gradient conditions: 0 min 60% eluent A, 3.0 min 0% eluent A, 4 min 0% eluent A, 5 min 60% eluent A. The effluent from the UPLC was passed directly into the electrospray ion source. Positive electrospray ionization was achieved using nitrogen as a desolation gas with ionization voltage at 600 V. The source temperature was set at 500 °C and argon was used as collision gas. The following SRM transitions were used: m/z 315.10 (parent ion) to m/z 69.9 and m/z 108.9 (both product ions) for progesterone, m/z 269.0 (parent ion) to m/z 144.9 and 158.9 (product ions) for estrone, and m/z 324.2 (parent ion) to m/z 99.9 and m/z 112.9 (product ions) for the internal standard d9-progesterone. We also attempted to quantify estradiol and estriol levels in the culture medium of both explants and cells, but these were below the detection limit.
# Construction of graphs and data analysis were performed using Graphpad Prism version 8.4.2. MTT conversion and progesterone and estrone release in placental explants were normalized to tissue wet weight. To compare the effects on tissue viability and cell viability, the data were normalized to control conditions and mean differences were tested using an unpaired t test, a one-way ANOVA, or a two-way repeated measures ANOVA. […]
# [3] = test system: JEG-3, BeWo, and syncytialised BeWo cells; assay: MTT assay, cell viability in all three trophoblast cell types; format: cell-based, human
# Procedure: Two human choriocarcinoma-derived placental cell lines were used: JEG3 and BeWo (ATCC catalog numbers HTB-36 and CCL-98, respectively). JEG3 cells were cultured in DMEM and Bewo cells in Ham’s F-12 K medium, supplemented with 10% fetal calf serum and 1% penicillin and streptomycin under a humidified 5% CO2/95% air atmosphere at 37 °C. Cells were passaged (JEG3: 1:10 twice a week; BeWo: 1:3 once a week) after trypsinization with 0.05% Trypsin–EDTA when cells reached approximately 80% confluency. For BeWo cells, the medium was renewed 3 times a week. To create syncytialised BeWo cells, regular BeWo cells were treated with 50 μM forskolin (Sigma-Aldrich, St. Louis, MO, USA) in 0.1% DMSO, to initiate syncytialisation. As forskolin increases the intracellular cAMP levels, it activates protein kinase A after which syncytialisation and fusion of trophoblasts occurs (Orendi et al. [2010]).
# The cells were seeded in 96-well culture plates at a cell density of 1 × 10^4 cells/well and cultured for 24 h at 37 °C in a humidified atmosphere with 5% CO2 to allow for attachment. Subsequently, the cells were exposed to the TKIs and cytostatic drugs in concentrations ranging from 100 pM to 100 µM (triplicate). […] This is a minimum percentage DMSO, but required as cells required co-incubation with forskolin to syncytialise. Crizotinib 100 μM was used as positive control. After attachment, cells were incubated with the compounds for 48 h, after which the medium was removed and the cells were exposed to […] diluted in medium. After 3 h of incubation with MTT, the formazan crystals formed were solubilized in 50 μL DMSO. The absorbance of formazan was measured at 540 nm by a Biorad Multiwell Plate reader.
# [4] = parameters: method as in Berveiller and Mir [2012]; Soininen et al. [2015]; settings: ref Berveiller and Mir [2012]; Soininen et al. [2015]; cited from earlier work
# BeWo cells = test system: BeWo cells; parameters: method as in Soininen et al. [2015]; settings: after 4 h of exposure, ref Soininen et al. [2015], read-out: IC50 cell viability; cited from earlier work
smiles,measurement,setting,value
COc1cccc2c1C(=O)c1c(O)c3c(c(O)c1C2=O)C[C@@](O)(C(=O)CO)C[C@@H]3O[C@H]1C[C@H](N)[C@H](O)[C@H](C)O1 [doxorubicin],"viability at 72 h, 1 µM","[1]; 1 µM, read-out: viability in explants, % of control values",83 ± 7%
same,"viability at 72 h, 100 µM","[1]; 100 µM, mean ± SEM, read-out: tissue viability, % of control",14 ± 2%
same,progesterone production (in words),[2],induced progesterone production
same,potency on viability in cells relative to explants (times more potent),[3]; all cell types (48 h) versus placental explants (72 h),approximately 10 times
same,effect on viability (in words),"[3]; all cell types, 1 µM, 48 h exposure",fully inhibited viability in all cell types
same,"uptake in ex vivo perfused placental tissue, % of initial maternal concentrations",[4],38–70%
same,IC50,BeWo cells,600 nM
